Values quoted from earlier work as cited in patent publication US11446297B2, “Methods for treating hemolytic diseases and sickle cell disease” (Purdue Research, priority 2015, dated 2022).

Target: Syk (Homo sapiens, UniProt P43405)
Settings: first IC column; kinase assay; Inactive@ 80 μM (r14)

COc1ccc2c(c1)c(/C=C1\C(=O)Nc3ccc(S(=O)(=O)N(C)C)cc31)cn2C [Compd 6]
IC@ (result in words): Inactive@
